Results: patent US10709724B2, “Methods of treating mitochondrial dysfunction” (Ecole Polytechnique Federale de Lausanne (EPFL), priority 2011, dated 2020)

Test system: C57Bl/6J mice
Test: Long-term NR supplementation of chow or high-fat diet fed mice
Assay type: in vivo
Description: Animal Experiments. Male PARP-1^+/+ and PARP-1^−/− mice on a pure C57Bl/6J background (Menissier-de Murcia et al., 1997) were used. Mice were housed separately, had ad libitum access to water and standard rodent chow (10 kcal % of fat, Safe, Augy, France) or to a high calorie, high fat diet (60 kcal % of fat, Research. Diets, New Brunswick, N.J., USA), and were kept under a 12 h dark-light cycle. In other animal experiments, 8 weeks-old male C57Bl/6J mice were purchased from Charles River and powder chow (D12450B) and high fat (D12492) diets were from Research Diets Inc (New Brunswick, N.J., USA). 80 ml of water per kg of powder CD were used to make food pellets. 40 ml of water per kg of powder HFD were used to make food pellets. For NR, NMN and NA supplemented diets, the appropriate amount of these compounds was added to the water used to create the pellets, taking into account the differences in the daily intake of each diet. Mice were housed separately, had ad libitum access to water and food and were kept under a 12 h dark-light cycle. Mice were fed with homemade pellets from 10 weeks of age. To make the pellets, the powder food was mixed with water (vehicle) or with NR. All animal experiments were carried out according to local national and EU ethical guidelines. To monitor body weight, mice were weighed and the food consumption was measured each week on the same day. In case of PJ34 treatment, mice received each 12 h (at 7:00 and 19:00) 10 mg/kg PJ34 by intraperitoneal injection for 5 continuous days. In all studies animals were killed (at 14:00) either after CO2 inhalation or cervical dislocation after 6 h of fasting (starting at 8:00), and tissues were collected and processed as specified below. Oral glucose tolerance test, intraperitoneal insulin tolerance test, free fatty acid (FFA) and triglycerides were determined as described (Lagouge et al., 2006). Plasma insulin and was determined in heparinized plasma samples using specific ELISA kits (Mercodia). Blood samples were collected in heparinized tubes and plasma was isolated after centrifugation. Plasma parameters were measured using a Cobas c111 (Roche Diagnostics). Thermoadaptation was performed as described (Lagouge et al., 2006). We measured O2 consumption, CO2 production, and spontaneous locomotor activity in an open circuit indirect calorimetry system (Sabre systems, Las Vegas, Nev., USA) over 24-48 has described (Dali-Youcef et al., 2007; Lagouge et al., 2006; Watanabe et al., 2006). […] The respiratory quotient was the ratio of CO2 production over O2 consumption. During actimetry, beamline crossings were summarized each 15 minutes. […] Euglycemic-hyperinsulinemic clamps were performed in PARP-1^−/− and ^+/+ male mice (n=4 mice per genotype; age=4 months) exactly as previously described (Feige et al, 2008).
Instruments, total body fat was measured by echoMRI as described (Lagouge et al., 2006; Watanabe et al., 2006). Endurance test was performed as described in (Canto et al., 2009). Intraperitoneal glucose and insulin tolerance tests (IPGTT and IPITT, respectively) were performed as previously described (Feige et al, 2008). The animals were killed after 6 h of fasting by CO2 asphyxiation and tissues were collected. Total body fat content was then examined at autopsy, by weighing the subcutaneous, gonadal, mesenterial, retroperitoneal and BAT associated fat depots. Liver triglyceride was determined after Folch extraction using a commercial triglyceride kit (Roche). Pancreas and plasma insulin content was determined from acidic extracts using a commercial ELISA kit (Mercodia) (Champy et al., 2004).
Histology and Microscopy. Haematoxylin-eosin (HE), Oil Red-O and succinate-dehydrogenase (SDH) stainings were performed on […] tissue sections as described (Lagouge et al., 2006; Picard et al., 2002). Transmission electron microscopy (TEM) investigation was performed on glutaraldehyde-fixed, osmium tetroxyde stained ultrafine sections (Watanabe et al., 2006). […]

## NC(=O)c1ccc[n+]([C@@H]2O[C@H](CO)[C@@H](O)[C@H]2O)c1 [NR, nicotinamide riboside]
16 weeks, 6 hr fast
  fasting insulin levels: much lower
CD and HFD
  thermogenic capacity (body temperature during cold exposure): enhanced thermogenic capacity
CD, NR 400 mg/kg/day
  O2 consumption rates on CD: marked tendency to display higher O2 consumption rates
  RER changes between feeding and fasting periods: higher amplitude of the changes in RER
  body weight on chow diet: no effect
HFD
  HDL-cholesterol levels: unaffected
  HFD-induced increase in LDL cholesterol: partially prevented the increase
  cristae of mitochondria in BAT (electron microscopy): more abundant cristae
  size of mitochondria in BAT (electron microscopy): not being significantly larger
HFD, 10 weeks
  glucose tolerance (intraperitoneal glucose tolerance test): slight, albeit not significant, improvement in glucose tolerance
  insulin secretion during glucose tolerance test: robust reduction in insulin secretion
HFD, 12 weeks
  endurance performance on HFD (treadmill): significantly accentuated
HFD, 16 weeks, 6 hr fast
  HFD-induced increase in total cholesterol: partially prevented the increase
HFD, NR 400 mg/kg/day
  O2 consumption rates on HFD: clearly significant
HFD, NR 400 mg/kg/day, 8 weeks
  fat mass (Echo-MRI): reduced fat mass
HFD, NR 400 mg/kg/day, 12 weeks
  HFD-induced body weight gain: significantly attenuated
NR 400 mg/kg/day
  activity pattern: did not affect the activity pattern
  liver triglycerides, less than vehicle-fed: 40%
  weight of the epididymal depot: significant lower weight of the epididymal depot
NR 400 mg/kg/day, especially on HFD
  food intake: tendency to eat more
NR-fed vs vehicle fed
  endurance performance: clear tendency to display a better endurance performance
mouse, in vivo
  SDH staining of gastrocnemius muscle: more intense SDH staining
